In ChEMBL document CHEMBL1122266, “Ring-substituted 1,2-dialkylated 1,2-bis(hydroxyphenyl)ethanes. 1. Synthesis and estrogen receptor binding affinity of 2,2'- and 3,3'-disubstituted hexestrols” (J Med Chem, 1983):
Several values for one entry are separate records, joined by “and”; a condition that tells them apart may be missing. Equal values may be shown once.

What was measured:
[1] = molecular target: Estrogen receptor (Bos taurus) (UniProt Q9XSB5+P49884); test: Relative binding affinity for calf uterine estrogen receptor by 17-beta-[3H]-estradiol competition.; assay type: protein assay
[2] = molecular target: T1, Estrogen receptor (Mus musculus) (UniProt O08537+P19785); test: Anti-uterotrophic activity in mice at 25 ug/day
[3] = molecular target: T1, Estrogen receptor (Mus musculus); test: Anti-uterotrophic activity in mice at 100 ug/day; assay type: functional
[4] = molecular target: T1, Estrogen receptor (Mus musculus); test: Estrogenic activity in uterotrophic assay in mice at 0 ug/day; assay type: functional
[5] = molecular target: T1, Estrogen receptor (Mus musculus); test: Estrogenic activity in uterotrophic assay in mice at 250 ug/day; assay type: functional
[6] = molecular target: T1, Estrogen receptor (Mus musculus); test: Estrogenic activity in uterotrophic assay in mice at 500 ug/day
[7] = molecular target: T1, Estrogen receptor (Mus musculus); test: Estrogenic activity in uterotrophic assay in mice at 0.4 ug/day with estrone; assay type: functional
[8] = molecular target: T1, Estrogen receptor (Mus musculus); test: Inhibition of anti-uterotrophic activity in mice at 5 ug/day (%inhibition=100-(E S,T-EV)x100); assay type: functional
[9] = molecular target: T1, Estrogen receptor (Mus musculus); test: Estrogenic activity in uterotrophic assay in mice at 2 ug/day; assay type: functional
[10] = molecular target: T1, Estrogen receptor (Mus musculus); test: Inhibition of anti-uterotrophic activity in mice at 25 ug/day (%inhibition=100-(E S,T-EV)x100); assay type: functional
[11] = molecular target: T1, Estrogen receptor (Mus musculus); test: Anti-uterotrophic activity in mice at 250 ug/day; assay type: functional
[12] = molecular target: T1, Estrogen receptor (Mus musculus); test: Inhibition of anti-uterotrophic activity in mice at 100 ug/day (%inhibition=100-(E S,T-EV)x100); assay type: functional
[13] = molecular target: T1, Estrogen receptor (Mus musculus); test: Inhibition of anti-uterotrophic activity in mice at 250 ug/day (%inhibition=100-(E S,T-EV)x100); assay type: functional
[14] = molecular target: T1, Estrogen receptor (Mus musculus); test: Estrogenic activity in uterotrophic assay in mice at 10 ug/day; assay type: functional
[15] = molecular target: T1, Estrogen receptor (Mus musculus); test: Estrogenic activity in uterotrophic assay in mice at 50 ug/day; assay type: functional
[16] = molecular target: T1, Estrogen receptor (Mus musculus); test: Anti-uterotrophic activity in mice at 5 ug/day; assay type: functional
[17] = molecular target: T1, Estrogen receptor (Mus musculus); test: Estrogenic activity in uterotrophic assay in mice at 1000 ug/day; assay type: functional
[18] = molecular target: T1, Estrogen receptor (Mus musculus); test: Estrogenic activity in uterotrophic assay in mice at 100 ug/day; assay type: functional
[19] = molecular target: T1, Estrogen receptor (Mus musculus); test: Estrogenic activity in uterotrophic assay in mice at 1 ug/day; assay type: functional
[20] = molecular target: T1, Estrogen receptor (Mus musculus); test: Anti-uterotrophic activity in mice at 0 ug/day; assay type: functional

T1 sequence (O08537 whole entry, looked up): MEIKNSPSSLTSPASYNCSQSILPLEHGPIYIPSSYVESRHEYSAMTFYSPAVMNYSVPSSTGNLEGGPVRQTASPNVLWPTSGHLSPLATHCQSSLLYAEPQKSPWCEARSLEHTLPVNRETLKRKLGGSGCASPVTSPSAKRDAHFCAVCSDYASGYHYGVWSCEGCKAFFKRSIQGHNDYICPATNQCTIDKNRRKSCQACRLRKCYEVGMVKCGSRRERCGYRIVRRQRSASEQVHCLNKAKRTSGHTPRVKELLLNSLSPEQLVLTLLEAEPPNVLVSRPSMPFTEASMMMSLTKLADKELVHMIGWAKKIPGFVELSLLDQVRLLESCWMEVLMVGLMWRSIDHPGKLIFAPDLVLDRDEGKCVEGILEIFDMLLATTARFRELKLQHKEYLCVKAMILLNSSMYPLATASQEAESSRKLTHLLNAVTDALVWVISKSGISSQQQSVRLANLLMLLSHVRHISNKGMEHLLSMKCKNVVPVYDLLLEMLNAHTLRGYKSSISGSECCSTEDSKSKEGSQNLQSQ
T1 sequence (P19785 whole entry, looked up): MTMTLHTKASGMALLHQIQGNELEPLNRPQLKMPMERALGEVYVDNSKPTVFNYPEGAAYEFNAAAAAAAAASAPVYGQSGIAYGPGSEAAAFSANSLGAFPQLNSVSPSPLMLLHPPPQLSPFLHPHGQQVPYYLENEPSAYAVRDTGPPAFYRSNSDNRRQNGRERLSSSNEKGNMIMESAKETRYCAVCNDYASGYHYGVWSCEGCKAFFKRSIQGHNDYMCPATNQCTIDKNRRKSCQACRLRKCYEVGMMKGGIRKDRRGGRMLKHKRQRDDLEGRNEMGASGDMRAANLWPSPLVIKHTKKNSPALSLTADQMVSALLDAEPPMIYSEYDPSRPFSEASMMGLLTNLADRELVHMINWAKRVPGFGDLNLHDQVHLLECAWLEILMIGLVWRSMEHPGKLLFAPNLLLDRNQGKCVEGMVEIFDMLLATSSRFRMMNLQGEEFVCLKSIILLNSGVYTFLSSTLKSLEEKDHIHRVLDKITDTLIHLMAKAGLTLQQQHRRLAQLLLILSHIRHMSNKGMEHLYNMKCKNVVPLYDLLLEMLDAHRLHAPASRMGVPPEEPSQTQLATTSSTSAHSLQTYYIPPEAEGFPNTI

SMILES	relative binding affinity (RBA) [1]	Effect [4] [mg 100g-1]	Effect [7]	Effect [14] [mg 100g-1]	other results
CCC(c1ccc(O)c(N(C)C)c1)C(CC)c1ccc(O)c(N(C)C)c1 (stereo not given)	< 0.01				
CCC(c1ccc(O)c(O)c1)C(CC)c1ccc(O)c(O)c1 (stereo not given)	20	15.4	54.3 mg 100g-1	34.7	Effect [2]: 37 mg 100g-1; Effect [3]: 39.2 mg 100g-1; Effect [5]: 50.1 mg 100g-1; Effect [6]: 49.8 mg 100g-1; inhibition [8]: 59%; Effect [9]: 24.6 mg 100g-1; inhibition [10]: 20%; Effect [11]: 43.6 mg 100g-1; inhibition [12]: 13%; inhibition [13]: 0%; Effect [15]: 39.1 mg 100g-1; Effect [16]: 24.1 mg 100g-1
CCC(c1ccc(O)c([N+](=O)[O-])c1)C(CC)c1ccc(O)c([N+](=O)[O-])c1 (stereo not given)	0.14				
CCc1cc(C(CC)C(CC)c2ccc(O)c(CC)c2)ccc1O (stereo not given)	1.2				
CC[C@H](c1ccc(O)cc1)[C@@H](CC)c1ccc(O)cc1	27				
CCC(c1ccc(O)c(CO)c1)C(CC)c1ccc(O)c(CO)c1 (stereo not given)	0.71				
CCC(c1ccc(O)c(C)c1)C(CC)c1ccc(O)c(C)c1 (stereo not given)	8.1	10	44.9 mg 100g-1	40	Effect [17]: 34 mg 100g-1; Effect [18]: 33.8 mg 100g-1; Effect [19]: 48.7 mg 100g-1
CCC(c1ccc(O)c(CN(C)C)c1)C(CC)c1ccc(O)c(CN(C)C)c1 (stereo not given)	0.04				
CCC(c1ccc(O)c(C(C)=O)c1)C(CC)c1ccc(O)c(C(C)=O)c1 (stereo not given)	< 0.01				
CCC(c1ccc(O)cc1F)C(CC)c1ccc(O)cc1F (stereo not given)	6.5	16.9	43.9 mg 100g-1	39	Effect [17]: 30.5 mg 100g-1; Effect [18]: 34.3 mg 100g-1; Effect [19]: 47.6 mg 100g-1
CCC(c1ccc(O)cc1Cl)C(CC)c1ccc(O)cc1Cl (stereo not given)	2.2				
CCC(c1ccc(O)c(COC)c1)C(CC)c1ccc(O)c(COC)c1 (stereo not given)	0.55				
CCC(c1ccc(O)cc1C)C(CC)c1ccc(O)cc1C (stereo not given)	8.5	16.9	43.9 mg 100g-1	36.6	Effect [17]: 32.6 mg 100g-1; Effect [18]: 38.4 mg 100g-1; Effect [19]: 46.3 mg 100g-1
CCOCc1cc(C(CC)C(CC)c2ccc(O)c(COCC)c2)ccc1O (stereo not given)	0.18				
CCC(c1ccc(O)cc1O)C(CC)c1ccc(O)cc1O (stereo not given)	32	16.4	51.4 mg 100g-1	41.6	Effect [19]: 53.6 mg 100g-1
CCC(c1ccc(O)c(N)c1)C(CC)c1ccc(O)c(N)c1 (stereo not given)	5.6	16.9	50.4 mg/100 g	24.3	Effect [17]: 45.6 mg 100g-1; Effect [2]: 34.6 mg 100g-1; Effect [18]: 44.7 mg/100 g; inhibition [8]: 78%; inhibition [10]: 0%; Effect [19]: 23.3 mg 100g-1; Effect [20]: 50.4 mg 100g-1 and 19.4 mg 100g-1
CCc1cc(O)ccc1C(CC)C(CC)c1ccc(O)cc1CC (stereo not given)	3.7				
CCC(c1ccc(O)cc1Br)C(CC)c1ccc(O)cc1Br (stereo not given)	1.8				
CCC(c1ccc(O)c(I)c1)C(CC)c1ccc(O)c(I)c1 (stereo not given)	0.17				
CCC(c1ccc(O)c(Br)c1)C(CC)c1ccc(O)c(Br)c1 (stereo not given)	0.25				
CCC(c1ccc(O)c(Cl)c1)C(CC)c1ccc(O)c(Cl)c1 (stereo not given)	1.6				
CCC(c1ccc(O)c(F)c1)C(CC)c1ccc(O)c(F)c1 (stereo not given)	16	10	44.9 mg 100g-1	43.4	Effect [17]: 38.8 mg 100g-1; Effect [18]: 40.4 mg 100g-1; Effect [19]: 50.7 mg 100g-1
